Results taken from ChEMBL document CHEMBL1145872, “Synthesis and in vitro efficacy of acid-sensitive poly(ethylene glycol) paclitaxel conjugates” (Bioorg Med Chem Lett, 2003).

How the values were obtained:
Format in all cases: functional, cell-based
[1] = tested on: RXF 944; experiment: In vitro inhibitory concentration of compound against human cancer RXF 944 cell line was determined
[2] = tested on: MEXF514; experiment: In vitro inhibitory concentration of compound against human cancer MEXF 514 cell line was determined
[3] = tested on: MCF7; experiment: In vitro inhibitory concentration of compound against human cancer MACL MCF-7 cell line was determined

Row | IC50 [1] | IC50 [2] | IC50 [3] | SMILES
1 | 0.09 µM | 0.22 µM | 0.13 µM | CC(=O)O[C@H]1C(=O)[C@@]2(C)C([C@H](OC(=O)c3ccccc3)C3(O)C[C@H](OC(=O)[C@H](OC(=O)c4ccc(C(C)=O)cc4)[C@@H](NC(=O)c4ccccc4)c4ccccc4)C(C)=C1C3(C)C)[C@]1(OC(C)=O)COC1C[C@@H]2O (stereo not given in full)
2 | 0.05 µM | 1.03 µM |  | CC(=O)O[C@H]1C(=O)[C@@]2(C)[C@H]([C@H](OC(=O)c3ccccc3)[C@]3(O)C[C@H](OC(=O)[C@H](O)[C@@H](NC(=O)c4ccccc4)c4ccccc4)C(C)=C1C3(C)C)[C@]1(OC(C)=O)CO[C@@H]1C[C@@H]2O [PACLITAXEL]
